Results reported in PMC11992225, “Antibacterial compounds against non-growing and intracellular bacteria” (npj Antimicrobials and Resistance, 2025).

Legend:
[1] = test system: non-growing UPEC CFT073; test: Dose-dependent killing analysis (CFU spot-plating) of stationary-phase UPEC; format: cell-based, Escherichia coli; conditions: E. coli in LPM (pH 5.5)
Procedure, shortened: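 Non-growing (stationary-phase) UPEC CFT073 treated with compounds in 96-well format at 200 μl, then 10-fold serially diluted in PBS and 10 μl spots plated on LB agar. Plates incubated overnight at 37 °C; colonies counted at lowest resolvable dilution to give CFU. Three biological replicates.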

[2] = test system: non-growing P. aeruginosa DSM1117; test: Dose-dependent killing analysis (CFU spot-plating) of stationary-phase P. aeruginosa; format: cell-based, Pseudomonas aeruginosa; conditions: P. aeruginosa
Procedure, shortened: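 Stationary-phase P. aeruginosa DSM1117 treated for 24 h in 1:4 CA-MHB, pH 7.4, across compound doses. Survivors counted after 10-fold PBS dilution, spot-plating on LB agar and overnight growth at 37 °C; three biological replicates.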

[3] = test system: SOS response in UPEC CFT073; test: SOS response induction analysis, pAED2 cda' promoter mScarlet-I reporter; format: cell-based, Escherichia coli; conditions: 20 μM
Protocol: Since we aimed to test SOS induction in non-growing cultures, it was essential to use a reporter with no leaky expression in the stationary phase. Therefore, we constructed the plasmid pAED2, based on the low copy-number plasmid pSC101, which contains the cda’ promoter in front of the mScarlet-I-encoding reporter gene.
Overnight cultures of CFT073 harboring a reporter plasmid were grown in 3 ml of LB supplemented with 100 µg/ml carbenicillin (Cb), then diluted 1:100 into the medium used for testing. For validation of the pANO1::cda’ reporter, an overnight culture was diluted into CA-MHB (supplemented with 40 mM HEPES, pH 7.4, and 100 µg/ml Cb) and grown to an OD600 ≈ 0.5 at 37 °C with shaking at 200 rpm in an Erlenmeyer flask. […] Empty wells were filled with water. […] The experiment was performed in triplicate.
For analysis of the SOS induction by anti-cancer compounds, the overnight cultures were diluted either into 1:4 diluted CA-MHB (40 mM HEPES, pH 7.4) or LPM (30 mM MES, pH 5.5) that were supplemented with 100 µg/ml Cb. For analysis of the effect on growing bacteria, the cultures were incubated at 37 °C with shaking at 200 rpm in Erlenmeyer flasks for 90 min, to an OD600 ≈ 0.5. Then, 180 μl aliquots were transferred to 96-well plates, and 20 μl of the 200 μM drug solution was added to achieve a final concentration of 20 μM. The plates were incubated in a microplate reader (BioTek Synergy H1) at 37 °C with continuous shaking for 6 h. OD600 and mScarlet fluorescence were recorded throughout the incubation.
For analysis of the effect of anti-cancer compounds on stationary phase- and regrowing bacteria, the cultures were incubated for 24 h at 37 °C with shaking at 200 rpm in Erlenmeyer flasks. […] The samples were incubated for 24 h at 37 °C in standing 1.5 ml tubes. Before and after the drug treatment, 25 μl aliquots were taken and diluted by mixing with 175 μl PBS. OD600 and mScarlet fluorescence were recorded using a microplate reader (BioTek Synergy H1).
After the treatment, stationary-phase bacteria were harvested by centrifugation at 5000 × g for 5 min at 20 °C, washed twice with PBS, and resuspended in 475 μl PBS.

CC(=O)[O][Pt]([NH2])([Cl])([Cl])([NH]C1CCCCC1)[O]C(C)=O [Satraplatin]
killing, average Δlog10(CFU/ml) ([1]; drug concentration 0.25): 0.465 log10(CFU/ml) | log10(CFU/ml) after treatment, replicate 1 ([1]; drug concentration 0.25): 6.778 log10(CFU/ml) | log10(CFU/ml) after treatment, replicate 2 ([1]; drug concentration 0.25): 6.431 log10(CFU/ml) | log10(CFU/ml) after treatment, replicate 3 ([1]; drug concentration 0.25): 7.447 log10(CFU/ml) | killing, average Δlog10(CFU/ml) ([1]; drug concentration 0.5): 0.567 log10(CFU/ml) | log10(CFU/ml) after treatment, replicate 1 ([1]; drug concentration 0.5): 7.041 log10(CFU/ml) | log10(CFU/ml) after treatment, replicate 2 ([1]; drug concentration 0.5): 6.079 log10(CFU/ml) | log10(CFU/ml) after treatment, replicate 3 ([1]; drug concentration 0.5): 7.230 log10(CFU/ml) | killing, average Δlog10(CFU/ml) ([1]; drug concentration 1): 0.828 log10(CFU/ml) | log10(CFU/ml) after treatment, replicate 1 ([1]; drug concentration 1): 6.778 log10(CFU/ml) | log10(CFU/ml) after treatment, replicate 2 ([1]; drug concentration 1): 6.176 log10(CFU/ml) | log10(CFU/ml) after treatment, replicate 3 ([1]; drug concentration 1): 6.613 log10(CFU/ml) | killing, average Δlog10(CFU/ml) ([1]; drug concentration 2.5): 1.360 log10(CFU/ml) | log10(CFU/ml) after treatment, replicate 1 ([1]; drug concentration 2.5): 6.954 log10(CFU/ml) | log10(CFU/ml) after treatment, replicate 2 ([1]; drug concentration 2.5): 5.903 log10(CFU/ml) | log10(CFU/ml) after treatment, replicate 3 ([1]; drug concentration 2.5): 5.114 log10(CFU/ml) | killing, average Δlog10(CFU/ml) ([1]; drug concentration 5): 1.695 log10(CFU/ml) | log10(CFU/ml) after treatment, replicate 1 ([1]; drug concentration 5): 6.146 log10(CFU/ml) | log10(CFU/ml) after treatment, replicate 2 ([1]; drug concentration 5): 5.778 log10(CFU/ml) | log10(CFU/ml) after treatment, replicate 3 ([1]; drug concentration 5): 5.041 log10(CFU/ml) | killing, average Δlog10(CFU/ml) ([1]; drug concentration 10): 2.758 log10(CFU/ml) | log10(CFU/ml) after treatment, replicate 1 ([1]; drug concentration 10): 5.778 log10(CFU/ml) | log10(CFU/ml) after treatment, replicate 2 ([1]; drug concentration 10): =<4 log10(CFU/ml) | log10(CFU/ml) after treatment, replicate 3 ([1]; drug concentration 10): =<4 log10(CFU/ml) | killing, average Δlog10(CFU/ml) ([2]; drug concentration 0.1): -0.012 log10(CFU/ml) | log10(CFU/ml) after treatment, replicate 1 ([2]; drug concentration 0.1): 8.699 log10(CFU/ml) | log10(CFU/ml) after treatment, replicate 2 ([2]; drug concentration 0.1): 9.301 log10(CFU/ml) | log10(CFU/ml) after treatment, replicate 3 ([2]; drug concentration 0.1): 8.699 log10(CFU/ml) | killing, average Δlog10(CFU/ml) ([2]; drug concentration 0.5): 0.420 log10(CFU/ml) | log10(CFU/ml) after treatment, replicate 1 ([2]; drug concentration 0.5): 8.477 log10(CFU/ml) | log10(CFU/ml) after treatment, replicate 2 ([2]; drug concentration 0.5): 8.845 log10(CFU/ml) | log10(CFU/ml) after treatment, replicate 3 ([2]; drug concentration 0.5): 8.079 log10(CFU/ml) | killing, average Δlog10(CFU/ml) ([2]; drug concentration 2.5): 1.880 log10(CFU/ml) | log10(CFU/ml) after treatment, replicate 1 ([2]; drug concentration 2.5): 7.845 log10(CFU/ml) | log10(CFU/ml) after treatment, replicate 2 ([2]; drug concentration 2.5): 8.477 log10(CFU/ml) | log10(CFU/ml) after treatment, replicate 3 ([2]; drug concentration 2.5): 4.699 log10(CFU/ml) | killing, average Δlog10(CFU/ml) ([2]; drug concentration 10): 3.310 log10(CFU/ml) | log10(CFU/ml) after treatment, replicate 1 ([2]; drug concentration 10): 5.000 log10(CFU/ml) | log10(CFU/ml) after treatment, replicate 2 ([2]; drug concentration 10): 6.778 log10(CFU/ml) | log10(CFU/ml) after treatment, replicate 3 ([2]; drug concentration 10): 4.954 log10(CFU/ml) | induction of the SOS response in growing UPEC cultures ([3]; 6 h, MMC, BLE, ECH in 1:4 CA-MHB pH 7.4, PLI, SAT, EVO in LPM pH 5.5): induced the SOS response | growth inhibition of growing UPEC ([3]; LPM pH 5.5, Fig. S7C,D): only a slight growth inhibition
